Measurements from US11147796B2, “Agent for preventing or ameliorating hearing impairment” (Tohoku University, priority 2017, dated 2021).

Columns and labels:
[1] = tested on: inner hair cells; assay: Survival rate of inner hair cells in cultured inner ear with cisplatin; assay type: cell-based, C57BL/6J mouse; settings: 48 hours
Procedure: (§1) In the following Examples 2, 3, and 5, “m.1555A>G mutant” cells were obtained by skin reproductive to a patient having “m.1555A>G mutation” to obtain dermal fibroblasts, then 10% Primary culture was carried out in DMEM (low glucose) culture solution (manufactured by Nacalai Tesque, Inc) containing FBS (Fetal bovine serum) under the condition of 5% CO2/20% O2, at 37° C. and isolated. In the following Examples 4 and 5, the inner ear culture was carried out in DMEM (high glucose) culture medium containing 10% FBS (Fetal bovine serum) under the condition of 5% CO2/20% O2, at 37° C.
(§2) [1] The inner ear of C57BL/6J mouse (hereinafter referred to as “P3 mouse”) on the third day after birth was isolated and cultured in a culture solution for 24 hours.
(§3) [2] […] Thereafter, washing with TBS (TBST) solution containing 0.3% Triton X-100 for 5 minutes was repeated twice, followed by taking photograph with a fluorescence microscope (BZ-9000, manufactured by Keyence) and observed using BZ-H1 software (manufactured by Keyence). From the obtained image, the number of cells and the number of damaged cells, each of which has a shape of 200 μm each corresponding to each part of the apex turn, the media turn, and the basilar turn, were measured and 3 parts of the cochlea (apex, media, basilar) were calculated from the survival rate (%) of the outer hair cells and the inner hair cells. […]

[2] = tested on: outer hair cells; assay: Survival rate of outer hair cells in cultured inner ear with cisplatin; assay type: cell-based, C57BL/6J mouse; settings: 48 hours
Procedure: as §1, §2, §3

[3] = tested on: inner ear cells; assay: Amount of ATP production in cultured inner ear; assay type: cell-based, mouse; settings: compound 10 μM; 3 hour results
Procedure: as §1
[1] The inner ear of P3 mice was isolated and cultured in culture solution for 24 hours.
[2] The compound #5 synthesized in Example 1 was mixed in the culture solution to be 10 μM and cultured for various times (3 hours, 6 hours, and 12 hours). […] [3] The concentration of ATP in the culture solution was measured with “cellular” ATP assay reagent (manufactured by Toyo Binet).

[4] = cisplatin 10 μM, compound 0, 1, 5, 10, 50 μM

Question: For O=C(CC(C(=O)O)c1c[nH]c2ccccc12)c1ccc(F)cc1F (centres unmarked) [compound #5, 4-(2,4-Difluorophenyl)-2-(1H-indol-3-yl)-4-oxo-butanoic Acid], which “survival rate of the inner hair cells” value [1, 4] is on record?
Answer: Its value is “almost no change in survival rate”.

Question: And the “survival rate of the inner hair cells” value ([1]; compound 10 μM, cisplatin 0, 5, 7.5, 10, 15, 20 μM, vs DMSO-treated group)?
Answer: The value was “hardly any difference”.

Question: What about the “survival rate of the outer hair cells” value [2, 4] of the same compound?
Answer: The value was “increases in a concentration-dependent manner”.

Question: And the “survival rate of the outer hair cells” value ([2]; compound 10 μM, cisplatin 0, 5, 7.5, 10, 15, 20 μM, apex, media, basilar)?
Answer: The value was “increased as compared with the DMSO-treated group”.

Question: What about the “amount of ATP production” value [3] of the same compound?
Answer: The value was “increases”.
